This data set in a line: Susceptibility of axitinib API to degradation found during drug development. Format: physicochemical. The conditions noted are these: active pharmaceutical ingredient.

Take `CNC(=O)c1ccccc1Sc1ccc2c(/C=C/c3ccccn3)n[nH]c2c1` [axitinib, N-methyl-2-[3-((E)-2-pyridin-2-yl-vinyl)-1H-indazol-6-ylsulfanyl]-benzamide]: the “susceptibility to degradation, including photodegradation” value is “highly susceptible to degradation, including photodegradation”.

The values above are taken from patent US20140248347A1 (PFIZER INC., priority 2011, published 2014).
